According to ChEMBL document CHEMBL1201862, “PubChem BioAssay data set” (2004):
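Cultured in 96-well plates, cells were exposed to test compound for 48 hours across five concentrations. GI50: concentration for 50% inhibition of growth.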 Active and inactive are the calls of the source. No stated cut-off is given here; in the data, active = GI50 up to about 1.1 µM and inactive = higher.

Legend:
Test in all cases: NCI tumour cell line growth inhibition, 48 h
COLO 205 = test system: COLO 205
NCI/ADR-RES = test system: NCI/ADR-RES
PC-3 = test system: PC-3
OVCAR-4 = test system: OVCAR-4
ACHN = test system: ACHN
786-0 = test system: 786-0
HOP-62 = test system: HOP-62
SK-MEL-5 = test system: SK-MEL-5
NCI-H460 = test system: NCI-H460
K562 = test system: K562
UACC-62 = test system: UACC-62
IGROV-1 = test system: IGROV-1
KM12 = test system: KM12
RPMI-8226 = test system: RPMI-8226
DU-145 = test system: DU-145
HT-29 = test system: HT-29
MDA-MB-231 = test system: MDA-MB-231
CAKI-1 = test system: CAKI-1
HCT-15 = test system: HCT-15
SK-OV-3 = test system: SK-OV-3

Structure (SMILES)	GI50 (COLO 205)	GI50 (NCI/ADR-RES)	GI50 (PC-3)	GI50 (OVCAR-4)	GI50 (ACHN)	GI50 (786-0)	GI50 (HOP-62)	GI50 (SK-MEL-5)	GI50 (NCI-H460)	GI50 (K562)	GI50 (UACC-62)	GI50 (IGROV-1)	GI50 (KM12)	GI50 (RPMI-8226)	GI50 (DU-145)	GI50 (HT-29)	GI50 (MDA-MB-231)	GI50 (CAKI-1)	GI50 (HCT-15)	GI50 (SK-OV-3)
O=C1CCC2c3ccccc3NCN12 (stereo not given)	> 100 µM (inactive)	> 100 µM (inactive)	> 100 µM (inactive)	> 100 µM (inactive)	> 100 µM (inactive)	> 100 µM (inactive)	> 100 µM (inactive)	> 100 µM (inactive)	> 100 µM (inactive)	> 100 µM (inactive)	> 100 µM (inactive)	> 100 µM (inactive)	> 100 µM (inactive)	> 100 µM (inactive)	> 100 µM (inactive)	> 100 µM (inactive)	> 100 µM (inactive)	> 100 µM (inactive)	> 100 µM	> 100 µM (inactive)
CN(C)CCCOc1nc2c(c(=O)n(C)c(=O)n2C)n1C.SC1=NC=NC2=NC=NC12	4.3 µM (inactive)	4.32 µM (inactive)	8.53 µM (inactive)	2.25 µM (inactive)	6.84 µM (inactive)	2.41 µM (inactive)	18.5 µM (inactive)	11.1 µM (inactive)	8.43 µM (inactive)	1.14 µM (inactive)	1.14 µM (inactive)	5.93 µM (inactive)	3.85 µM (inactive)	0.757 µM (active)	0.692 µM (active)	5.2 µM (inactive)	1.69 µM (inactive)	1.02 µM (active)	3.14 µM	23.9 µM (inactive)
C/C(=N\Nc1nc2ccccc2s1)c1ccncn1	0.126 µM (active)	0.351 µM (active)	2.06 µM (inactive)	2.52 µM (inactive)	0.0673 µM (active)	0.719 µM (active)	2.28 µM (inactive)	0.621 µM (active)	0.438 µM (active)	0.973 µM (active)	1.44 µM (inactive)	0.485 µM (active)	1.42 µM (inactive)	1 µM (active)	3.54 µM (inactive)	0.0311 µM (active)	0.499 µM (active)	0.145 µM (active)	0.661 µM	1.74 µM (inactive)
COC(=O)C1=C(OC(=O)/C(=C/c2ccccc2)c2ccccc2)C(C(=O)OC)[C@@]2(O)[C@@H](C(=O)OC)[C@H](C)C[C@@H]1[C@@H]2C(=O)OC (stereo not given in full)	> 100 µM (inactive)	> 100 µM (inactive)	> 100 µM (inactive)	> 100 µM (inactive)	> 100 µM (inactive)	> 100 µM (inactive)	> 100 µM (inactive)	> 100 µM (inactive)	> 100 µM (inactive)	6.11 µM (inactive)	> 100 µM (inactive)	> 100 µM (inactive)	> 100 µM (inactive)	2.67 µM (inactive)	> 100 µM (inactive)	> 100 µM (inactive)	> 100 µM (inactive)	> 100 µM (inactive)	> 100 µM	> 100 µM (inactive)
O=C1c2cc(Cl)ccc2N=C(NCCCl)C2CSCN12 (stereo not given)	> 100 µM (inactive)	> 100 µM (inactive)	> 100 µM (inactive)	> 100 µM (inactive)	> 100 µM (inactive)	> 100 µM (inactive)	> 100 µM (inactive)	> 100 µM (inactive)	> 100 µM (inactive)	70.1 µM (inactive)	> 100 µM (inactive)	> 100 µM (inactive)	> 100 µM (inactive)	> 100 µM (inactive)	> 100 µM (inactive)	> 100 µM (inactive)	> 100 µM (inactive)	> 100 µM (inactive)	> 100 µM	> 100 µM (inactive)
Cc1ccc(C(=O)Nc2ccc(CP(=O)(O)O)cc2CP(=O)(O)O)cc1NC(=O)c1cccc(N)c1	> 100 µM (inactive)	> 100 µM (inactive)	> 100 µM (inactive)	> 100 µM (inactive)	> 100 µM (inactive)	> 100 µM (inactive)	> 100 µM (inactive)	> 100 µM (inactive)	> 100 µM (inactive)	> 100 µM (inactive)	> 100 µM (inactive)	> 100 µM (inactive)	> 100 µM (inactive)	> 100 µM (inactive)	> 100 µM (inactive)	> 100 µM (inactive)	> 100 µM (inactive)	> 100 µM (inactive)	> 100 µM	> 100 µM (inactive)
COC(=O)[C@@H]1C[C@@]2(C3C=CN(C(=O)C(F)(F)F)C=C3)c3ccccc3N(C(=O)C(F)(F)F)[C@H]2N1C(=O)OC	> 100 µM (inactive)	> 100 µM (inactive)	70.8 µM (inactive)	93.3 µM (inactive)	> 100 µM (inactive)	54 µM (inactive)	49.5 µM (inactive)	70 µM (inactive)	> 100 µM (inactive)	47.8 µM (inactive)	32.1 µM (inactive)	> 100 µM (inactive)	> 100 µM (inactive)	42.1 µM (inactive)	> 100 µM (inactive)	> 10 µM (inactive)	> 100 µM (inactive)	65.3 µM (inactive)	88.1 µM	> 100 µM (inactive)
O=C(c1cc(Br)ccc1O)c1cc(Br)ccc1O	17.4 µM (inactive)	18.8 µM (inactive)	17.1 µM (inactive)	16.6 µM (inactive)	16.4 µM (inactive)	16.9 µM (inactive)	18.7 µM (inactive)	12.6 µM (inactive)	17.6 µM (inactive)	15.3 µM (inactive)	13.1 µM (inactive)	14.3 µM (inactive)	17.1 µM (inactive)	11.3 µM (inactive)	15.8 µM (inactive)	17.7 µM (inactive)	17.2 µM (inactive)	18.2 µM (inactive)	18.7 µM	19.4 µM (inactive)
CC(C)(C)OC(=O)N1C(OP(=O)(Oc2ccccc2)Oc2ccccc2)=CSc2ccccc21	20.4 µM (inactive)	43.2 µM (inactive)	47.8 µM (inactive)	34 µM (inactive)	27.5 µM (inactive)	45.5 µM (inactive)	47.6 µM (inactive)	28.2 µM (inactive)	29.1 µM (inactive)	38.3 µM (inactive)	46.9 µM (inactive)	38.1 µM (inactive)	32.8 µM (inactive)	17.8 µM (inactive)	89.9 µM (inactive)	50.2 µM (inactive)	24 µM (inactive)	18.8 µM (inactive)	37.5 µM	57.8 µM (inactive)
Cc1nc2cccc([N+](=O)[O-])c2n1CCCN(C)C	> 100 µM (inactive)	> 100 µM (inactive)	> 100 µM (inactive)	> 100 µM (inactive)	> 100 µM (inactive)	> 100 µM (inactive)	> 100 µM (inactive)	> 100 µM (inactive)	> 100 µM (inactive)	> 100 µM (inactive)	> 100 µM (inactive)	> 100 µM (inactive)	> 100 µM (inactive)	> 100 µM (inactive)	> 100 µM (inactive)	> 100 µM (inactive)	> 100 µM (inactive)	> 100 µM (inactive)	> 100 µM	> 100 µM (inactive)
COc1nc2c(c(=O)n1C)NC(C(O)C(O)CO)C=N2 (stereo not given)	> 10 µM (inactive)	> 10 µM (inactive)	> 10 µM (inactive)	> 10 µM (inactive)	> 10 µM (inactive)	> 10 µM (inactive)	> 10 µM (inactive)	> 10 µM (inactive)	> 10 µM (inactive)	> 10 µM (inactive)	> 10 µM (inactive)	> 10 µM (inactive)	> 10 µM (inactive)	> 10 µM (inactive)	> 10 µM (inactive)	> 10 µM (inactive)	> 10 µM (inactive)	> 10 µM (inactive)	> 10 µM	> 10 µM (inactive)
Cc1cc2oc(=O)c(Cl)c(Cl)c2c(C)c1Cl	2.56 µM (inactive)	5.5 µM (inactive)	11.4 µM (inactive)	4.28 µM (inactive)	11.2 µM (inactive)	3.15 µM (inactive)	24.6 µM (inactive)	6.93 µM (inactive)	16.7 µM (inactive)	1.95 µM (inactive)	6.71 µM (inactive)	4.3 µM (inactive)	15.1 µM (inactive)	2.35 µM (inactive)	14.6 µM (inactive)	4.78 µM (inactive)	11 µM (inactive)	4.74 µM (inactive)	3.5 µM	14.4 µM (inactive)
Cc1coc2c1C(=O)C(=O)c1c-2ccc2c1CCCC2(C)C [TANSHINONE IIA]	8.07 µM (inactive)	4.58 µM (inactive)	2.34 µM (inactive)	10.6 µM (inactive)	7.33 µM (inactive)	1.87 µM (inactive)	1.95 µM (inactive)	0.213 µM (active)	1.17 µM (inactive)	0.875 µM (active)	1.63 µM (inactive)	2.04 µM (inactive)	3.76 µM (inactive)	1.94 µM (inactive)	2.52 µM (inactive)	10.5 µM (inactive)	21.8 µM (inactive)	1.95 µM (inactive)	0.673 µM	21.3 µM (inactive)
COc1ccc2c(c1)C(=O)CC(N)C2 (stereo not given)	> 100 µM (inactive)	> 100 µM (inactive)	42 µM (inactive)	> 100 µM (inactive)	> 100 µM (inactive)	> 100 µM (inactive)	> 100 µM (inactive)	> 100 µM (inactive)	> 100 µM (inactive)	> 100 µM (inactive)	68.5 µM (inactive)	> 100 µM (inactive)	> 100 µM (inactive)	> 100 µM (inactive)	> 100 µM (inactive)	> 100 µM (inactive)	> 100 µM (inactive)	> 100 µM (inactive)	> 100 µM	> 100 µM (inactive)
